{
  "source": "patent US20120329721A1",
  "about": "“MEANS FOR PREVENTING AND TREATING CELLULAR DEATH AND THEIR BIOLOGICAL APPLICATIONS” (CHIESI FARMACEUTICI S.P.A., priority 2003, published 2012)",
  "key": {"[1]": {"tested_on": "caspase-9", "assay": "In cellula caspase-9 like activity (FAM-LEHD-FMK FLICA) in SD-neurons", "format": "cell-based, mouse", "conditions": "24 hr-SD; inhibitors 100 μM (BA 25 μM)", "method": "Neurons were incubated with 1/150 of the DMSO stock solution of the FLICA for 1 hr at 37° C. 7-AAD and Hoechst were added during the last 15 min. Then neurons were washed three times in washing buffer (CaspaTag™ Kit). […] Cleaved caspase-3 was evidenced in cellula by immunodetection using Phycoerythrin (PE)-conjugated polyclonal antibodies (Beckton Dickinson). Neurons were stained by 7-AAD, trypsinized and fixed in PBS containing 1% PFA and 20 μg/ml Actinomycin D (AD) for 20 min. […] After washings in PBS, PE-related fluorescence was analysed on the cytometer (Fl-2 channel). Z-val-Ala-Asp(OMe)-FMK (Z-VAD-FMK), Quinoline-Val-Asp (OMe)-CH2-O-Ph (Q-VD-OPH), Z-DEVD-FMK ([…], ICN) and Z-LEHD-FMK ([…], all purchased from ICN (Orsay, France), and 4-(2-Aminoethyl)benzenesulfonyl fluoride (AEBSF, Pefabloc SC, Roche, Meylan, France) were added at 100 μM at the initiation of serum deprivation. Sulforhodamine-DEVD-FMK, (CaspaTag™ Red Activity Kit) permitted to detect activated caspase-3 and FITC-Annexin V. Neurons were incubated with 1/900 of the DMSO stock solution of the FLICA, and 1× FITC-annexin V in 200 μl of annexin-buffer for 30 min at 37° C. Then neurons were washed three times in a buffer composed of 50% washing buffer and 50% annexin-buffer. […] For FM, FLICA was excited through the BP515-560 filter and its fluorescence was collected through the LP590 long pass emission filter.\nNeurons were loaded with 1 μM JC-1 for 30 min at 37° C. […] JC-1 monomers were detected in the Fl-1 channel by FC. […] Activated caspase-2, -3, -8 and -9 were detected using specific FAM-conjugated peptides (called Fluorochrome Labeled Inhibitor of Caspase, FLICA: CaspaTag™ fluorescein Caspase Activity Kits, Q-Biogen, Illkirch, France; ApoFluor™ Caspase Detection Kits, ICN, Orsay, France): FAM-VDVAD-FMK, FAM-DEVD-FMK, FAM-LETD-FMK and FAM-LEHD-FMK, respectively. Neurons were incubated with FLICAs (1:150, CaspaTag™ or 1:500, ApoFluor™) for 1 hr at 37° C., then washed three times in washing buffer. […] Phosphatidylserine (PS) exposure to the outer leaflet of the plasma membrane was detected through the fixation of FITC conjugated-annexin V (Immunotech)."}, "[2]": {"tested_on": "Jurkat cells", "assay": "VP16-induced cell death of Jurkat cells, cytoprotection assay", "format": "cell-based, human", "conditions": "VP16 10 μM, 7-8 hrs; inhibitors 50 μM"}, "[3]": {"tested_on": "primary cortical neurons", "format": "cell-based"}, "[4]": {"tested_on": "caspase-3", "assay": "In cellula caspase-3 like activity (FAM-DEVD-FMK FLICA or anti-cleaved caspase-3 antibody) in SD-neurons", "format": "cell-based, mouse", "conditions": "24 hr-SD, inhibitors 100 μM (BA 25 μM)"}, "[5]": {"tested_on": "primary cortical neurons", "assay": "Cortical neuron death induced by other stimuli (ionomycin, staurosporine, β-amyloid 25-35, MPTP, 3-NPA, SNP)", "format": "cell-based, mouse", "conditions": "100 μM inhibitor, 24-48 hrs"}, "[6]": {"biological_target": "T1, human recombinant caspase-2 (Homo sapiens, UniProt P42575)", "T1 construct": "purchased BIOMOL", "T1 sequence (P42575 170-325 limits assumed)": "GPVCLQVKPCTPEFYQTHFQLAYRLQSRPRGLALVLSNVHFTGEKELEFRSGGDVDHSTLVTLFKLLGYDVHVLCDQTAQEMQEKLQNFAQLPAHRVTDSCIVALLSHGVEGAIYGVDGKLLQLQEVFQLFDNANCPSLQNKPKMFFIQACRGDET", "T1 sequence (P42575 348-452 limits assumed)": "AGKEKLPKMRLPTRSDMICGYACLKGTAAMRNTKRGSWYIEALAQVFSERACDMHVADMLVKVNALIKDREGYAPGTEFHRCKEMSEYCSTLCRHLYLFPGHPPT", "assay": "In vitro VDVAD-AMC cleavage by recombinant caspase-2", "format": "biochemical", "procedure": "Activity of human recombinant caspase-2 (BIOMOL QuantiZyme™ Assay System) was assessed in 100 μl assay buffer (50 mM HEPES, pH 7.4, 100 mM NaCl, 0.1% CHAPS, 10 mM DTT, 1 mM EDTA, 10% glycerol)."}, "[7]": {"tested_on": "Bax α", "assay": "Bax cleavage (p22 to p18) in SD-neurons by Western blotting", "format": "cell-based, mouse", "method": "Neurons were lysed at RT in 25 mM Tris-HCl pH 7.4, 25 mM NaCl, 5 mM EDTA, 1% Triton X-100 supplemented by complete protease inhibitors cocktail (Roche). Protein concentration was determined using the Bio-Rad protein assay kit. Proteins (30 μg for caspase-2; 10 μg for Bax) were separated on 12.5% polyacrylamide gels and transferred to PVDF membranes (Amersham). […] The monoclonal anti-mouse caspase-2antibody (11B4, Alexis Biochemicals) was used at a 1:1000 dilution; polyclonal antibody (Δ21, Santa Cruz Biotechnology) raised against mouse Bax α deleted for the carboxy terminal 21 amino acids was used at a 1:200 dilution; polyclonal antibody (N20, Santa Cruz Biotechnology) raised against the amino terminus of Bax α (recognizing residues 11 to 30) was used at a 1:1000 dilution. Actin (42 kDa; Sigma; 1:5000) is used as an equal loading control. Immunoblotting of heat-shock protein 60 (HSP60) with a mouse monoclonal anti-HSP (Sigma; 1:400) was used to check the purity of the heavy membrane fraction enriched in mitochondria."}, "[8]": {"tested_on": "Bax", "assay": "Bax translocation to mitochondria in SD-neurons (Δ21 antibody immunostaining, subcellular fractionation)", "format": "cell-based, mouse"}, "[9]": {"tested_on": "cytochrome c", "assay": "Immunodetection of cytochrome c release in SD-neurons", "format": "cell-based, mouse", "conditions": "24 hr-SD; inhibitors 100 μM"}, "[10]": {"tested_on": "caspase-2", "assay": "In cellula caspase-2 like activity (FAM-VDVAD-FMK FLICA; Western blotting) in SD-neurons", "format": "cell-based, mouse"}, "[11]": {"conditions": "SD model, compound added at the start of SD at the concentration of column '[ ], μM' (first concentration/target where two are printed)"}, "[12]": {"conditions": "inhibitor 2 μM, 50 μM VDVAD-AMC, caspase-2 125 U, 30 min at 37° C."}, "[13]": {"conditions": "SD model, second concentration/target printed in the row (ALLN 150 μM, ALLM 100 μM; 20 S Proteasome)"}, "[14]": {"conditions": "24 hr-SD, Western Blotting Δ21 antibody, VDVAD/QVDOPH 100 μM, ALLN/ALLM 25 μM, E64d 25-50 μM, lactacystin 1-10 μM, epoxomycin 10 μM"}},
  "note": "Entries after “also recorded” stand apart in the source; their conditions may differ. Read-outs that look alike come from different tables or passages of the source. Non-standard residues stand in square brackets, D forms with d. Residues, ends and D or L forms follow the SMILES beside them. *: point of attachment. Nle = CCCC[C@H](N)C(=O)O; Cbz = O=C(OCc1ccccc1)*; CH2F = FC*",
  "data": [
    {"smiles": "CO[C@H](C/C=C\\C=C\\CC/C=C/C[C@H](C)/C=C/C(=C\\C(=O)O)CC(=O)O)/C(C)=C\\C=C(/C)C(=O)O", "note": "[BA, bongkrekic acid]", "values": [
      {"measurement": "caspase-9 like activity / activation in SD-neurons", "setting": "[1]", "value": "prevents caspase-9 like activation"},
      {"measurement": "terminal nuclear alterations and PMP in VP16-treated Jurkat cells", "setting": "[2]", "value": "attenuates"},
      {"measurement": "ΔΨm loss in VP16-treated Jurkat cells", "setting": "[2]", "value": "attenuates"},
      {"measurement": "survival / protection of SD-neurons against cell death (apoptosis hallmarks overall)", "setting": "[3]", "value": "Neuroprotection"},
      {"measurement": "ΔΨm loss (drop) in SD-neurons", "setting": "[3]; 24 hr-SD, JC-1, inhibitors 100 μM (BA 25 μM)", "value": "inhibited"},
      {"measurement": "degradation phase of apoptosis: PS exposure, nuclear apoptosis (NA), PMP in SD-neurons", "setting": "[3]; 24 hr-SD, inhibitors 100 μM (BA 25 μM)", "value": "strongly prevent"},
      {"measurement": "caspase-3 like activity / activation in SD-neurons", "setting": "[4]", "value": "strongly prevent"}
    ]},
    {"smiles": "COC(=O)C[C@H](NC(=O)[C@H](C)NC(=O)[C@@H](NC(=O)OCc1ccccc1)C(C)C)C(=O)CF", "note": "[Z-VAD-FMK, N-benzyloxycarbonyl-Val-Ala-Asp(Ome)-fluoromethylketone] (Cbz-Val-Ala-Asp(OMe)-CH2F)", "values": [
      {"measurement": "protection from NA and PMP induced by β-amyloid (25-35), MPTP, 3-NPA, SNP or ionomycin", "setting": "[5]", "value": "fails to provide protection, except for β-amyloid; also recorded: fail to prevent significantly"},
      {"measurement": "survival / protection of SD-neurons against cell death (apoptosis hallmarks overall)", "setting": "[3]", "value": "neither Z-VAD-FMK nor BOC-D-FMK (BOC-D) is able to delay or to abrogate; also recorded: inefficient"},
      {"measurement": "degradation phase of apoptosis: PS exposure, nuclear apoptosis (NA), PMP in SD-neurons", "setting": "[3]; 24 hr-SD, inhibitors 100 μM (BA 25 μM), listed as Z-VAD.fmk", "value": "undergo PS exposure, stage-II nuclear apoptosis and final PMP"},
      {"measurement": "Survival", "setting": "[3]; [11]", "value": "No"},
      {"measurement": "inhibition of VDVAD-AMC cleavage by recombinant caspase-2", "setting": "[6]; [12]", "value": "less important"},
      {"measurement": "caspase-3 like activity / activation in SD-neurons", "setting": "[4]; listed as Z-VAD.fmk", "value": "do not present caspase-3-like activity"},
      {"measurement": "caspase-3 like activity / activation in SD-neurons", "setting": "[4]; listed as z-VAD-fmk", "value": "strongly inhibit"}
    ]},
    {"smiles": "CCCC[C@@H](C=O)NC(=O)[C@H](CC(C)C)NC(=O)[C@H](CC(C)C)NC(C)=O", "note": "[ALLN, N-Acetyl-Leu-Leu-Norleu-al] (Ac-Leu-Leu-[Nle]-aldehyde)", "values": [
      {"measurement": "Survival", "setting": "[3]; [11]", "value": "No/No"},
      {"measurement": "Survival", "setting": "[3]; [13]", "value": "No/No"},
      {"measurement": "inhibition of VDVAD-AMC cleavage by recombinant caspase-2", "setting": "[6]; [12]", "value": "unable to impair cleavage activity"},
      {"measurement": "Bax cleavage (p18 Bax) in SD-neurons", "setting": "[7]", "value": "does not prevent Bax cleavage; also recorded: unable to prevent Bax cleavage"}
    ]},
    {"smiles": "CSCC[C@@H](C=O)NC(=O)[C@H](CC(C)C)NC(=O)[C@H](CC(C)C)NC(C)=O", "note": "[ALLM, N-Acetyl-Leu-Leu-Met-al] (Ac-Leu-Leu-Met-aldehyde)", "values": [
      {"measurement": "Survival", "setting": "[3]; [11]", "value": "No/No"},
      {"measurement": "Survival", "setting": "[3]; [13]", "value": "No/No"},
      {"measurement": "inhibition of VDVAD-AMC cleavage by recombinant caspase-2", "setting": "[6]; [12]", "value": "unable to impair cleavage activity"},
      {"measurement": "Bax cleavage (p18 Bax) in SD-neurons", "setting": "[7]; [14]", "value": "does not prevent Bax cleavage; also recorded: unable to prevent Bax cleavage"}
    ]},
    {"smiles": "CCOC(=O)[C@H]1O[C@@H]1C(=O)N[C@@H](CC(C)C)C(=O)NCCC(C)C", "note": "(relative stereo) [E64d, trans-Epoxysuccinyl-L-leucylamido-(4-guanidine)butane]", "values": [
      {"measurement": "Survival", "setting": "[3]", "value": "No"},
      {"measurement": "inhibition of VDVAD-AMC cleavage by recombinant caspase-2", "setting": "[6]", "value": "unable to impair cleavage activity"},
      {"measurement": "Bax cleavage (p18 Bax) in SD-neurons", "setting": "[7]", "value": "does not prevent Bax cleavage; also recorded: unable to prevent Bax cleavage"}
    ]},
    {"smiles": "NCCc1ccc(S(=O)(=O)F)cc1", "note": "[Pefabloc, 4-(2-Aminoethyl)benzenesulfonyl fluoride]", "values": [
      {"measurement": "Bax translocation (relocation) to mitochondria in SD-neurons", "setting": "[8]", "value": "fail to impair Bax relocation"},
      {"measurement": "cytochrome c release from mitochondria in SD-neurons", "setting": "[9]", "value": "fail to impair cytochrome c release"},
      {"measurement": "Survival", "setting": "[3]; [11]", "value": "No"}
    ]},
    {"smiles": "CC(=O)N[C@@H](CSC(=O)[C@]1([C@@H](O)C(C)C)NC(=O)[C@H](C)[C@@H]1O)C(=O)O", "note": "[Lactacystin]", "values": [
      {"measurement": "Survival", "setting": "[3]; [11]", "value": "No"},
      {"measurement": "Bax cleavage (p18 Bax) in SD-neurons", "setting": "[7]; [14]", "value": "p18 Bax appears to be stabilized"}
    ]},
    {"smiles": "NS(=O)(=O)c1cc(C(=O)O)c(NCc2ccco2)cc1Cl", "note": "[furosemide]", "values": [
      {"measurement": "Bax translocation (relocation) to mitochondria in SD-neurons", "setting": "[8]; 24 hr-SD, inhibitors 100 μM (furosemide 2 mM)", "value": "partially prevents mitochondrial Bax relocation; also recorded: partially prevented"},
      {"measurement": "survival / protection of SD-neurons against cell death (apoptosis hallmarks overall)", "setting": "[3]; 24 hr-SD, inhibitors 100 μM (BA 25 μM, furosemide 2 mM, siRNA 3.8 μg)", "value": "reduces hallmarks of apoptosis; also recorded: results in impairment of ΔΨm drop, NA, PMP and cytochrome c release"},
      {"measurement": "caspase-2 like activity / activation in SD-neurons", "setting": "[10]", "value": "does not impair caspase-2 activity; also recorded: without impairing caspase-2 activity"}
    ]}
  ]
}
